Source: ChEMBL document CHEMBL1201862, “PubChem BioAssay data set” (2004)
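48-hour exposure; five concentrations; linearly interpolated endpoints. Here, GI50 denotes the concentration required for 50% inhibition of growth.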 Calls of active or inactive are those of the source. Cut-off read from the data, not from the text of the source: active = GI50 up to about 1.1 µM and inactive = higher.

What was measured:
Experiment in all cases: DTP human tumour cell line panel, 48 h
K562 = test system: K562
SK-OV-3 = test system: SK-OV-3
OVCAR-5 = test system: OVCAR-5
NCI-H460 = test system: NCI-H460
SK-MEL-5 = test system: SK-MEL-5
SF-539 = test system: SF-539
HOP-92 = test system: HOP-92
A549 = test system: A549
SK-MEL-28 = test system: SK-MEL-28
HCC 2998 = test system: HCC 2998
CCRF-CEM = test system: CCRF-CEM
ACHN = test system: ACHN
IGROV-1 = test system: IGROV-1
NCI-H23 = test system: NCI-H23
CAKI-1 = test system: CAKI-1
EKVX = test system: EKVX
SNB-75 = test system: SNB-75
SR = test system: SR

Measured: GI50

NC(=O)c1cn(Cc2ccccc2)c(=O)n1Cc1ccccc1
inactive: K562 > 100 µM | SK-OV-3 > 100 µM | OVCAR-5 > 100 µM | NCI-H460 > 100 µM | SK-MEL-5 > 100 µM | SF-539 > 100 µM | HOP-92 > 100 µM | A549 > 100 µM | SK-MEL-28 > 100 µM | HCC 2998 > 100 µM | CCRF-CEM > 100 µM | ACHN > 100 µM | IGROV-1 > 100 µM | NCI-H23 > 100 µM | CAKI-1 > 100 µM | EKVX > 100 µM | SNB-75 > 100 µM

Oc1nnc2c(-c3ccccc3)n[nH]c2n1
inactive: K562 > 100 µM | OVCAR-5 > 100 µM | NCI-H460 > 100 µM | SR > 100 µM | SF-539 15 µM | A549 14.2 µM | SK-MEL-28 > 100 µM | HCC 2998 > 100 µM | CCRF-CEM > 100 µM | ACHN > 100 µM | IGROV-1 94.4 µM | NCI-H23 > 100 µM | CAKI-1 45.5 µM | EKVX 16.4 µM

CC(C)c1cccc(C(C)C)c1NC(=O)CCC(=O)NN
inactive: K562 58.6 µM | SK-OV-3 > 100 µM | OVCAR-5 > 100 µM | NCI-H460 84.9 µM | SK-MEL-5 > 100 µM | SF-539 > 100 µM | HOP-92 > 100 µM | A549 > 100 µM | SK-MEL-28 > 100 µM | HCC 2998 > 100 µM | CCRF-CEM > 100 µM | ACHN > 100 µM | IGROV-1 > 100 µM | NCI-H23 > 100 µM | CAKI-1 > 100 µM | EKVX > 100 µM | SNB-75 > 100 µM

O=C1Cc2ccccc2N1/N=C\c1ccc([N+](=O)[O-])cc1
inactive: K562 > 100 µM | SK-OV-3 > 100 µM | OVCAR-5 > 100 µM | NCI-H460 > 100 µM | SK-MEL-5 > 100 µM | SF-539 > 100 µM | HOP-92 > 100 µM | A549 > 100 µM | SK-MEL-28 > 100 µM | HCC 2998 > 100 µM | CCRF-CEM > 100 µM | ACHN > 100 µM | IGROV-1 > 100 µM | NCI-H23 > 100 µM | CAKI-1 > 100 µM | EKVX > 100 µM | SNB-75 54.8 µM

COC(=O)NC12CC3CC(CC(F)(C3)C1)C2
inactive: K562 > 100 µM | SK-OV-3 > 100 µM | OVCAR-5 > 100 µM | NCI-H460 > 100 µM | SF-539 > 100 µM | HOP-92 > 100 µM | A549 > 100 µM | SK-MEL-28 > 100 µM | HCC 2998 > 100 µM | CCRF-CEM > 100 µM | ACHN > 100 µM | IGROV-1 > 100 µM | NCI-H23 > 100 µM | EKVX > 100 µM | SNB-75 19.7 µM

CC(=O)O[C@]12CCCCCC1C1(O)C(O)CCCCC12 (stereo partly drawn)
inactive: K562 > 100 µM | SK-OV-3 > 100 µM | NCI-H460 > 100 µM | SK-MEL-5 > 100 µM | SR > 100 µM | A549 > 100 µM | SK-MEL-28 > 100 µM | CCRF-CEM > 100 µM | ACHN > 100 µM | NCI-H23 > 100 µM | EKVX > 100 µM | SNB-75 > 100 µM

CC(C)c1ccc(Cc2ccc(C(C)C)c(NC(=O)C(=O)Cc3cnc4ccccc4n3)c2C(C)C)c(C(C)C)c1NC(=O)C(=O)Cc1cnc2ccccc2n1
inactive: K562 > 100 µM | SK-OV-3 > 100 µM | OVCAR-5 > 100 µM | NCI-H460 > 100 µM | SK-MEL-5 > 100 µM | SF-539 > 100 µM | HOP-92 12.4 µM | A549 > 100 µM | HCC 2998 > 100 µM | CCRF-CEM > 100 µM | ACHN > 100 µM | IGROV-1 > 100 µM | CAKI-1 98.9 µM | EKVX > 100 µM

COc1cc2ccc(C(=O)O)cc2cc1OC
inactive: K562 > 100 µM | SK-OV-3 > 100 µM | OVCAR-5 > 100 µM | NCI-H460 > 100 µM | SK-MEL-5 > 100 µM | SF-539 > 100 µM | HOP-92 > 100 µM | A549 > 100 µM | SK-MEL-28 > 100 µM | CCRF-CEM > 100 µM | ACHN > 100 µM | IGROV-1 > 100 µM | NCI-H23 > 100 µM | EKVX > 100 µM | SNB-75 37.4 µM

CCOC(=O)C(=O)Nc1ccccc1C
inactive: K562 > 100 µM | SK-OV-3 > 100 µM | OVCAR-5 > 100 µM | NCI-H460 > 100 µM | SK-MEL-5 > 100 µM | SF-539 > 100 µM | HOP-92 > 100 µM | A549 > 100 µM | SK-MEL-28 > 100 µM | HCC 2998 > 100 µM | CCRF-CEM > 100 µM | ACHN > 100 µM | IGROV-1 > 100 µM | NCI-H23 > 100 µM | CAKI-1 > 100 µM | EKVX > 100 µM | SNB-75 > 100 µM
